Test results as given in patent US11091486B2, “Process for the preparation of pyrazolo[1,5-a]pyrimidines and salts thereof” (Array BioPharma Inc., priority 2016, dated 2021).

Key:
Format in all cases: physicochemical
[1] = 1-week stability tests (40° C./75% RH, 80° C., ambient light), XRPD and UPLC
Excerpt: Compound 1 (Form I) was subjected to various different environmental conditions to assess stability.

[2] = Salt disproportionation studies; conditions: deionized water, 24 h at ambient temperature
Method: Salt disproportionation studies were carried out as follows: 20 mg of prepared salts were weighed into a vial and 0.5 mL of deionized water was added. The samples were then agitated for 24 h at ambient temperature. The pH of the samples was taken pre- and post-agitation. Any solids recovered were submitted for XRPD analysis to determine any changes to form.

[3] = Hydration screen in acetone/water mixtures; conditions: 24 hr
Method: Hydration screen was carried out as follows: 10 mg of prepared salts were suspended in several acetone/water mixtures of various water activities (low: aw=0.281, medium: aw=0.776 and high: aw=0.919) and agitated at ambient temperatures for 24 hr. Any recovered solids were submitted for XRPD analysis to determine any changes to form.

[4] = Dynamic vapor sorption (DVS); conditions: post-DVS XRPD
Method: Approximately, 10 mg of sample was placed into a mesh vapor sorption balance pan and loaded into a DVS-1 dynamic vapor sorption balance by Surface Measurement Systems. The sample was subjected to a ramping profile from 40-90% relative humidity (RH) at 10% increments, maintaining the sample at each step until a stable weight had been achieved (99.5% step completion). After completion of the sorption cycle, the sample was dried using the same procedure to 0% RH and then a second sorption cycle back to 40% RH. The weight change during the sorption/desorption cycles were plotted, allowing for the hygroscopic nature of the sample to be determined. XRPD analysis was then carried out on any solid retained.

[5] = Thermodynamic solubility of prepared salts
Method: Thermodynamic solubility studies were carried out as follows: 10 mg of prepared salts were suspended in pH 1, 4.5, 6.8 and un-buffered water (300 μL). The pH of the slurries was measured and adjusted accordingly using either 0.2M HCl solution or 0.2M sodium hydroxide solution. The slurries were agitated for 24 hours at ambient temperature using an incubator shaker.

[6] = Gravimetric vapor sorption (GVS)
Method: Approximately 10-20 mg of sample was placed into a mesh vapor sorption balance pan and loaded into an IGASorp Moisture Sorption Analyzer balance by Hiden Analytical. […] After completion of the sorption cycle, the sample was dried using the same procedure to 0% RH, and finally taken back to the starting point of 40% RH. The weight change during the sorption/desorption cycles were plotted, allowing for the hygroscopic nature of the sample to be determined.

[7] = medium water activity (aw=0.776)

Structure (SMILES) | 1-week stability test: change in purity (UPLC) ([1]; 40° C./75% RH) | 1-week stability test: change in purity (UPLC) ([1]; 80° C.) | 1-week stability test: change in purity (UPLC) ([1]; ambient light) | Salt disproportionation: recovered material by XRPD [2] | Hydration study: recovered solid by XRPD ([3]; high water activity (aw=0.919)) | Hydration study: recovered solid by XRPD ([3]; low water activity (aw=0.281)) | Hydration study: recovered solid by XRPD [3, 7] | Thermodynamic solubility in words ([5]; pH 1) | Solid recovered from thermodynamic solubility slurry (XRPD) ([5]; pH 4.5) | Thermodynamic solubility in words ([5]; pH 4.5) | Solid recovered from thermodynamic solubility slurry (XRPD) ([5]; pH 6.8) | Thermodynamic solubility in words ([5]; pH 6.8) | Solid recovered from thermodynamic solubility slurry (XRPD) ([5]; unbuffered water) | Thermodynamic solubility in words ([5]; unbuffered water) | further results
C[C@@H]1CCc2ncc(F)cc2[C@H]2CCCN2c2ccn3ncc(c3n2)C(=O)N1.O=C(O)CC(O)(CC(=O)O)C(=O)O [Compound 1 citrate] | no change to purity | no change to purity | no change to purity | poorly crystalline citrate salt | poorly crystalline citrate salt | poorly crystalline citrate salt | unknown form | high solubility | Compound 1 citrate | lower solubility | poorly crystalline free base | lower solubility | Compound 1 citrate | highly soluble | 1-week stability test: change to form (XRPD) ([1]; 40° C./75% RH): no change to form; 1-week stability test: change to form (XRPD) ([1]; 80° C.): no change to form; 1-week stability test: change to form (XRPD) ([1]; ambient light): no change to form; Crystalline form by XRPD after exposure to DVS humidity conditions [4]: no changes in crystalline form; Solid recovered from thermodynamic solubility slurry (XRPD) ([5]; pH 1): poorly crystalline solids
CS(=O)(=O)O.C[C@@H]1CCc2ncc(F)cc2[C@H]2CCCN2c2ccn3ncc(c3n2)C(=O)N1 [Compound 1 mesylate] | no change to purity | no change to purity | no change to purity | no change to form | free base | a mixture of free base and salt | mesylate salt | moderately soluble | mesylate salt | moderately soluble | free base | low solubility | free base | moderately soluble | Hygroscopicity, mass uptake by GVS ([6]; at 90% RH): about 32%; Crystalline form by XRPD after exposure to GVS humidity conditions ([6]; post-GVS XRPD): desolvate and become the mesylate form seen in the salt screen
